Patent US6538145B2, “24-hydroxy vitamin D derivatives” (Chugai Seiyaku Kabushiki Kaisha, priority 1998, dated 2003)

Target: T1, vitamin D receptor derived from chick intestine (Gallus gallus, UniProt O42392)
T1 construct: vitamin D receptor derived from chick intestine; from tissue; host or cells: chick intestine
T1 sequence (O42392 1-451): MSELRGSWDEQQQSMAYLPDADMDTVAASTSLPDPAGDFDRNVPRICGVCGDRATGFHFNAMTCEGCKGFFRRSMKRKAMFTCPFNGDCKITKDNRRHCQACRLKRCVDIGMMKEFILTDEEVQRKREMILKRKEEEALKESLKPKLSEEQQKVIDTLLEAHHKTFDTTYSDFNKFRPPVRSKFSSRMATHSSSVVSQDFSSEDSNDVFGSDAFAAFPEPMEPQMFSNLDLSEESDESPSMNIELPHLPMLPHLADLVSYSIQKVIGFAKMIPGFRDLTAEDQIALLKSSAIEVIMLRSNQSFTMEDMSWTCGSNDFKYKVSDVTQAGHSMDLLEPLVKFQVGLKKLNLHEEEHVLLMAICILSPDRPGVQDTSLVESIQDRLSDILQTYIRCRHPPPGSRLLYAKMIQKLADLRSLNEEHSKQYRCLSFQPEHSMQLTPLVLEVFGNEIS
Assay: Assay for binding to vitamin D receptor (VDR), radio receptor assay (RRA)
Conditions: competition with 3H-1α,25-dihydroxyvitamin D3; test compound 1 to 100,000 nM; 4° C. for 3 hours; result in words only
Experimental: By the radio receptor assay (RRA), compounds 1a and 1b of the present invention were tested for their ability to bind to vitamin D receptor derived from chick intestine.
^3H-1α,25-dihydroxyvitamin D3 was dissolved in ethanol (20 μl) at a concentration of 10,000 dpm. Three test compounds, 1α,25-dihydroxyvitamin D3, compound la and compound 1b, were diluted with ethanol to give concentrations in the range of from 1 to 100,000 nM, respectively.
To each of small tubes, 20 μl of ^3H-1α,25 -dihydroxyvitamin D3 in solution and 50 μl of a test compound (i.e., 1α,25-dihydroxyvitamin D3, compound 1a or compound 1b) in solution were added. A solution of vitamin D receptor was prepared by dissolving 25 mg of VDR in 70 ml of 0.05M phosphate buffer solution containing 0.3 M KCl and 5 mM DTT (dithiothreitol) and 0.5 ml of the resulting solution was added to each tube, followed by mixing. […] To 0.5 ml of the supernatant, 5 ml of liquid scintillator was added for radioactivity measurement. The B/B0 value was calculated from the measurements (B: radioactivity measured in the presence of a test compound, B0: radioactivity measured in the absence of the test compound).

affinity for the vitamin D receptor (B/B0, FIG. 1): show affinity for the vitamin D receptor
SMILES: C=C1C(=CC=C2CCCC3(C)C2CCC3C(C)CCC(O)C(C)(C)O)CC(O)C(OCCCO)C1O [Compound 1a, (5Z,7E)-(1R,2R,3R,24S)-2-(3-hydroxypropoxy)-9,10-secocholesta-5,7,10(19)-triene-1,3,24,25-tetraol]
